Assay results as given in US7700375B2, “Fluorescent labeling of specific protein targets in vitro and in vivo” (Valorisation-Recherche, LP, priority 2004, dated 2010).
Blank lines part the entries; values can stand above or below the compound they belong to.

Columns and labels:
[1] = Fluorescence spectral properties of fluorogens and their ethanethiol adducts; type: physicochemical; settings: for φ (quantum yield): rapid approximation method of reference 34
Method: For the application of this fluorogenic reaction to the detection of thiols and dithiols, two important criteria are the fluorescence intensity of the thiol addition product and the ratio of its fluorescence compared to its parent fluorogen. We studied the effect of electron withdrawing and donating substituants on these criteria by preparing the derivatives of fluorogen 4 shown in Scheme 1. Fluorogen 5, bearing an electron withdrawing ester group, was prepared according to a protocol similar to that used for fluorogen 4, but using an ester-substituted maleic anhydride derived by oxidation of dimethyl L-tartrate according to a published procedure.^31 Fluorogen 6 bears an electron donating methyl group and was obtained in similar yield by adaptation of the standard literature protocol,^25 using citraconic anhydride. The reaction of 5 and 6 with ethanethiol in DMSO led to the formation of thiol adducts 8 and 9, whose fluorescence was characterized as shown in Table 1. Even from this small series, certain tendencies are apparent. Increasing the electron donating capacity of the substituent appears to have a significant effect on the absorbance maximum corresponding to the wavelength of excitation, increasing by 37 nm from 8 to 9. Although the emission wavelength increases very slightly over the same series, the net effect on the Stokes shift is a significant decrease with increasing electron donating capacity of the substituent.
(§1) Comparison of the fluorescent properties^34 of the four different parent fluorogens (and their corresponding thiol adducts) studied herein (see Table 2) substantiates our retention of compounds 13 and 20 as candidates for further tests with proteins.
The following material were obtained from Aldrich and were used without further purification: 2-hydroxy-5-nitrobenzaldehyde, N-acetylglycine, maleic anhydride, p-nitrophenylacetic acid, L-aspartic acid dimethyl ester hydrochloride, citraconic anhydride, dimethyl L-tartrate, dimethyl malonate. All reactions were carried out under an atmosphere of dry nitrogen employing conventional bench-top techniques except for reactions with thiols. ^13C-NMR and ^1H-NMR spectra were recorded on AMXR400 or AMX300 spectrometers and were referenced to the residual proton or ^13C signal of the solvent. Mass spectra were determined by FAB+ ionization on an AutoSpecQ spectrometer at the Regional Mass Spectrometry Centre at the Université de Montréal. Infrared spectra were recorded on a Perkin-Elmer (FTIR) spectrometer. Melting points (uncorrected) were determined on a Unimelt Tomas-Hoover or on a Gallenkamp meting point apparatus. Fluorescence spectra were recorded using a Varian Cary Eclipse fluorimeter and gel electrophoresis was carried out on a SpectraPhoresis 100 apparatus.

[2] = Product study of reaction with 3-mercaptopropionic acid by capillary electrophoresis; settings: up to 2 equivalents of 3-mercaptopropionic acid; CE
From the text: Product studies carried out for the reaction of 4 with simple thiols support the hypothesis that the second addition reaction is faster than the first. Initial experiments involved the addition of ethanethiol to 4 and attempts to separate and characterize the dithiolated and monothiolated adducts. However, no significant peak corresponding to the putative monothiolated adduct could be isolated by flash chromatography, so an experiment was designed to facilitate the separation of the monothiolated and dithiolated adducts by capillary electrophoresis (CE, see Experimental Section). By using 3-mercaptopropionic acid as a simple thiol, we ensured that at basic pH, any monothiolated adduct would singly negatively charged, due to ionization of the carboxylate group, whereas the dithiolated product would be doubly negatively charged.
After reaction of 1 mM 1 with 0.25-3 mM 3-mercaptopropionic acid in DMSO-H2O 1.9 overnight, the fluorescence of the reaction mixture was measured. To this mixture was then added 3 equivalents of ethanethiol, converting all unreacted and monothiolated adducts to dithiolated adducts. […] Their relative concentrations were calculated by the areas under their peaks, recorded UV detection at 370 nm. […]

[3] = Temperature dependence of first-order rate constants of ethanethiol addition; settings: 0.1 mM fluorogen, 2.0 mM ethanethiol in DMF, 10-40° C.
Method: First-order rate constants for the reaction of 0.1 mM 13 with 2.0 mM ethanethiol in DMF were also measured as a function of temperature from 10-40° C. Over this temperature range, the observed rate constants increased slightly with temperature, but varied by less than a factor of 2, and evaporation of ethanethiol was problematic at 40° C. For these reasons, precise quantitative analysis of the effect of temperature (for example, in the form of an Eyring plot) was not possible.

[4] = Thiol addition reaction of fluorogens with ethanethiol (fluorescence increase)
From the text: The fluorescence spectra obtained upon excitation at 350 nm before and after the reaction of ethanethiol with compound 4 are shown in FIG. 1.
Based on this observation, we reasoned that compounds 4 and 13 should also react efficiently with one equivalent of a dithiol bearing two sulfhydryl groups separated by an appropriate distance. […] That is, after fluorogen 4 undergoes an initial addition reaction with BMMB, the second addition reaction with the pendant sulfhydryl group of BMMB is intramolecular and presumably much faster (Scheme 5).
[formula] […] In the case of dithiol addition, this second addition reaction with a sulfhydryl group would be intramolecular, and presumably even faster.

mCys-Fos = molecular target: T1, mCys-Fos (Homo sapiens, UniProt P01100, C204S); assay: Protein labeling in vitro, SDS-PAGE with UV illumination; type: biochemical; settings: 0.242 mM protein, 0.5 mM of 20 or 0.05 mM of 13, 25° C. overnight
T1 construct: the C99S mutant of a fragment of Fos; His-tag (N); made in house; host or cells: XL1-blue E. coli
Method: (§2) As mentioned in the introduction, an α-helical protein was designed to bear two cysteine residues, separated by a distance complementary to that between the maleimide groups of the designated fluorogen. The protein chosen as a starting point for this design was the C99S mutant of a fragment of Fos,^21 a known α-helical protein^22 whose recombinant expression has been published.^23 Site-directed mutagenesis was then performed^20,35 to introduce a cysteine residue (L56C), separated by two turns of the α-helical motif from the native Cys49, positioning the protein's only two thiol groups approximately 10 Å apart.^36 Although at higher concentrations, Fos is known to form a homodimer,^22 the distance between the intermolecular cysteine residues in this putative homodimer would render their reaction with a single fluorogen molecule impossible. […]
(§3) Purified mCys-Fos and diCys-Fos were then tested in vitro for their ability to react with fluorogens 13 and 20. After incubation of 0.242 mM protein with 0.5 mM of 20 or 0.05 mM of 13 at 25° C. overnight, glycerol was added and the reaction mixtures were analyzed by SDS-PAGE using UV illumination and then Coomassie blue staining. […]

diCys-Fos = diCys-Fos (Homo sapiens, UniProt P01100, C204S/L161C); assay: as above; type: biochemical; design: the C99S mutant of a fragment of Fos; settings: 0.242 mM protein, 0.5 mM of 20 or 0.05 mM of 13, 25° C. overnight
Method: as §2, §3

Solubility = type: physicochemical
Method: as §1
Finally, we wished to determine if fluorogens such as 13 and 20 were cytotoxic. […] Furthermore, even at 300 μM 20, the limit of its solubility in cell culture, 70% of COS cells were still viable (FIG. 8). […] The convenience of the application of this fluorescent labeling method is obvious from the low cytoxocity of 20, even at concentrations 30 times greater than those necessary for efficient labeling.

[5] = in DMSO, ratio of areas under fluorescence emission bands of fluorogen and its thiol adduct

T1 sequence (P01100 118-211 C204S limits assumed): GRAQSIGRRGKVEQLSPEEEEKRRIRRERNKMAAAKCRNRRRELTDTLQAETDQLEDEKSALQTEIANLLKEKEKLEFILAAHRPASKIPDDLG
Chain of diCys-Fos (P01100 118-211 L161C/C204S limits assumed): as the sequence (P01100 118-211 C204S limits assumed) above, with L44C counted along it

- melting point: > 296 °C (dec.)
SMILES: O=C1C=CC(=O)N1c1ccc2oc(=O)c(N3C(=O)C=CC3=O)cc2c1 [Compound 4, 3,6-Dimaleimidylchromen-2-one]

- Stokes shift ([1]; in DMSO): 115 nm
- λem (emission band) ([1]; in DMSO): 360-600 nm
- λem, wavelength corresponding to center of Full Width at Half Maximum of emission band ([1]; in DMSO): 447 nm
- λexc ([1]; in DMSO): 332 nm
- IF Ratio [1, 5]: 2.7
SMILES: COC(=O)C1=CC(=O)N(c2ccc3oc(=O)c(N4C(=O)C=C(C(=O)OC)C4=O)cc3c2)C1=O [Compound 5, 3,6-Di-(3′-methoxycarbonylmaleimidyl)chromen-2-one]

- Stokes shift ([1]; in DMSO): 82 nm
- λem (emission band) ([1]; in DMSO): 370-600 nm
- λem, wavelength corresponding to center of Full Width at Half Maximum of emission band ([1]; in DMSO): 455 nm
- λexc ([1]; in DMSO): 373 nm
- IF Ratio [1, 5]: 3.6
SMILES: CC1=CC(=O)N(c2ccc3oc(=O)c(N4C(=O)C=C(C)C4=O)cc3c2)C1=O [Compound 6, 3,6-Di-(3′-methylmaleimidyl)chromen-2-one]

- Stokes shift ([1]; in DMSO): 121 nm
- λexc ([1]; in DMSO): 336 nm
SMILES: CCSC1C(=O)N(c2ccc3oc(=O)c(N4C(=O)C(SCC)C(C(=O)OC)C4=O)cc3c2)C(=O)C1C(=O)OC (centres unmarked) [Compound 8, 3,6-Di-(3′-ethylthio-4′-methoxycarbonylsuccinimidyl)chromen-2-one]

- Stokes shift ([1]; in DMSO): 82 nm
- λexc ([1]; in DMSO): 373 nm
SMILES: CCSC1C(=O)N(c2ccc3oc(=O)c(N4C(=O)C(C)C(SCC)C4=O)cc3c2)C(=O)C1C (centres unmarked) [Compound 9, 3,6-Di-(3′-ethylthio-4′-methylsuccinimidyl)chromen-2-one]

- Stokes shift ([1]; 10:90 DMSO: water): 76 nm
- λem (emission band) ([1]; 10:90 DMSO: water): 400-550 nm
- λem, wavelength corresponding to center of Full Width at Half Maximum of emission band ([1]; 10:90 DMSO: water): 460 nm
- λexc ([1]; 10:90 DMSO: water): 384 nm
- φ (quantum yield) ([1]; 10:90 DMSO: water): 0.006
- IF Ratio ([1]; 10:90 DMSO: water, ratio of areas under emission bands of fluorogen and thiol adduct): 5.2
- fluorescent labeling of mCys-Fos (mCys-Fos): is not
- fluorescent labeling of diCys-Fos (diCys-Fos): efficiently fluorescently labeled
SMILES: O=C1C=CC(=O)N1c1ccc(-c2cc3cc(N4C(=O)C=CC4=O)ccc3oc2=O)cc1 [Compound 13, 6-Maleimidyl-3-p-maleimidylphenylchromen-2-one]
- formation of monothiolated adduct [2]: no monothiolated product was detectable
- variation of observed first-order rate constants with temperature (factor) [3]: < 2
- change in fluorescence on addition of ethanethiol ([4]; 3 mM ethanethiol, 1 mM fluorogen, 9:1 H2O:DMSO, over 3 hours): marked increase in fluorescence
- equivalents of thiol at which fluorescence plateau was reached ([4]; ethanethiol): ~2.2 equivalents

- Stokes shift ([1]; 10:90 DMSO: water): 76 nm
- λexc ([1]; 10:90 DMSO: water): 384 nm
- φ (quantum yield) ([1]; 10:90 DMSO: water): 0.223
SMILES: CCSC1CC(=O)N(c2ccc(-c3cc4cc(N5C(=O)CC(SCC)C5=O)ccc4oc3=O)cc2)C1=O (centres unmarked) [Compound 14, 6-(3′-Ethylthiosuccinimidyl)-3-p-(3′-ethylthiosuccinimidyl)phenylchromen-2-one]

- Stokes shift ([1]; neat DMSO): 63 nm
- λem (emission band) ([1]; neat DMSO): 340-500 nm
- λem, wavelength corresponding to center of Full Width at Half Maximum of emission band ([1]; neat DMSO): 391 nm
- λexc ([1]; neat DMSO): 328 nm
- φ (quantum yield) ([1]; neat DMSO): 1.70 × 10^−3
- IF Ratio ([1]; neat DMSO, ratio of areas under emission bands of fluorogen and thiol adduct): 31
SMILES: O=C1C=CC(=O)N1c1cccc2c(N3C(=O)C=CC3=O)cccc12 [Compound 15, 1,5-Dimaleimidylnaphthalene]
- solubility in water / aqueous DMSO (Solubility): insoluble in water, even upon the addition of up to 10% DMSO

- Stokes shift ([1]; 10:90 DMSO: water): 67 nm
- λexc ([1]; 10:90 DMSO: water): 511 nm
- fluorescence of ethanethiol adduct relative to parent fluorogen (factor) ([1]; adduct vs parent fluorogen (16 in DMSO)): 8.5
SMILES: CCSC1CC(=O)N(c2cc3c4c(cc(N5C(=O)CC(SCC)C5=O)cc4c2)C(=O)N([C@@H](CC(=O)OC)C(=O)OC)C3=O)C1=O (stereo partly drawn) [Compound 21, N-(3,6-Di(3′-ethylthiosuccinimidyl)-1,8-naphthalyl)-L-aspartic acid dimethyl ester]
- detectability of adduct fluorescence ([1]; ethanethiol adduct): easily detected at micromolar concentrations
